Assay [1] addresses T1, Thrombin (Homo sapiens, UniProt P00734). The assay can be described thus: Thrombin inhibition constant (Ki). Conditions: read-out: Ki [μmol/l] Thrombin. Format: biochemical.
For another assay, the system named is serine protease trypsin. Kind of assay: Ultrafiltration target-binding test of non-equimolar amidinophenylalanine mixture with trypsin (Example 2). Conditions: applied 6 8.4, 7 41.25, 10 2.5 μmol/l. The protocol:
(§1) Incubation of the substance library and the inhibitor with thrombin took place at room temperature within 1 hour; solvent: 0.9% of NaCl in H2O. The separation of the protein-ligand complexes formed was accomplished by ultrafiltration (centrifugal). All filtration procedures and washes were carried out until dryness of the filters.
(§2) Filter: Microcon 10 (Amicon)
(§3) Centrifugation conditions: 9981×g, room temperature
(§4) Washing steps: 2×, each with 150 μl of 0.9% NaCl in H2O, 4° C.
(§5) Ultrafiltration and analysis of the filtrate were followed by washing steps and the liberation of the ligand (the active chemical substance) from the protein-ligand complex retained on the filter by treatment with 200 μl of water/methanol/TFA (49.5/49.5/1) at room temperature.
(§6) The blind sample (without thrombin) was treated analogously in all steps so that a comparison of the filtrates was possible. The filtrates obtained in all steps were dried by means of a speed-VAC concentrator, and later dissolved in the corresponding HPLC flow agent of defined amount applying ultrasound and agitation.
Identification of the ligands was accomplished by analytic HPLC: stationary phase Hypersil C 18 BDS, 3 μm, 150*0.3 mm, Fusica (LC Packings)—mobile phase: acetonitrile/water/TFA (35/65/0.01), isocratic, 5 μL/min, λ=[…].
The trypsin inhibitors of 3-amidinophenylalanine represented in the following by their structural formulae, were used as chemical substances, and the serine protease trypsin as target:
The experiments were performed as described in Example 1.

A further assay has as its target T2, Trypsin (Bos taurus, UniProt P00760).
T2 sequence (P00760 24-246): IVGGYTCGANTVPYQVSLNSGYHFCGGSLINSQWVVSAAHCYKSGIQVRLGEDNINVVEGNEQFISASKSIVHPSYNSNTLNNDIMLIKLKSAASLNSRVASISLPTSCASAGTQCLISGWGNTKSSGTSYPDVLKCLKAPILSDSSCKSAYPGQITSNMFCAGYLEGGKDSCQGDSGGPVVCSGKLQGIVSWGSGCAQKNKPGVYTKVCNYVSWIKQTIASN
Kind of assay: Trypsin inhibition constant (Ki). Format: biochemical. Conditions: read-out: Ki [μmol/l] Trypsin.

A further assay deals with serine protease thrombin (Homo sapiens, UniProt P00734). The assay can be described thus: Ultrafiltration target-binding test of substance library with thrombin, HPLC of filtrates (Example 1). Conditions: 10 μmol/l each substance, 5 μmol/l thrombin, 1 hour room temperature. The protocol: As a target, the serine protease thrombin was chosen.
The examined assays were of the following composition:
as §1, §2, §3, §4, §5, §6
Identification of the ligands was accomplished by analytic HPLC: stationary phase Hypersil C 18 BDS, 3 μm, 150*0.3 mm, Fusica (LC Packings)—mobile phase: acetonitrile/water/TFA (35/65/0.01), isocratic, 5 μL/min, λ=[…]. […]

For assay [2], the target named is T1, Thrombin. Conditions: thrombin inhibitor CRC 220 of Behringwerke; cited from earlier work.
A further assay has as its target β2-adrenoreceptor (Homo sapiens, UniProt P07550). Kind of assay: Ultrafiltration target-binding test of extract of taraxacum with β2-adrenoreceptor membrane preparation (Example 3).
Setting [3] is: Sample 351, no receptor, extract 1.5 mg (7.5 g/l).
Setting [4] is: Sample 355, receptor 1.04 pmol (5.2 nmol/l), extract 1.5 pmol (7.5 nmol/l).
The mark [5] stands for this setting: Sample 356, receptor 1.04 pmol (5.2 nmol/l), extract 1.5 pmol (7.5 nmol/l).
Setting [6] is: Sample 360, no receptor, extract 0.3 mg (1.5 g/l).
[7] abbreviates: Sample 361, receptor 1.04 pmol (5.2 nmol/l), extract 0.3 mg (1.5 g/l).
[8] abbreviates: Sample 362, no receptor, extract 0.6 mg (3 g/l).
Setting [9] is: Sample 363, receptor 1.04 pmol (5.2 nmol/l), extract 0.6 mg (3 g/l).
Where [10] appears, read: Sample 364, no receptor, extract 1.0 mg (5.0 g/l).
Where [11] appears, read: Sample 365, receptor 1.04 pmol (5.2 nmol/l), extract 1.0 mg (5.0 g/l).
[12] abbreviates: Sample 366, receptor 1.04 pmol (5.2 nmol/l), extract 1.5 mg (7.5 g/l).
Setting [13] is: Sample 367, receptor 1.04 pmol (5.2 nmol/l), extract 1.5 mg (7.5 g/l).
[14] abbreviates: Sample 369, receptor 1.04 pmol (5.2 nmol/l), extract 1.5 mg (7.5 g/l).
The mark [15] stands for this setting: Sample 373, receptor 1.04 pmol (5.2 nmol/l), extract 1.5 mg (7.5 g/l).
Setting [16] is: Sample 374, receptor 0.52 pmol (2.6 nmol/l), extract 1.5 mg (7.5 g/l).
The mark [17] stands for this setting: Sample 375, receptor 0.26 pmol (1.3 nmol/l), extract 1.5 mg (7.5 g/l).

Structures are written as SMILES. Read-outs that look alike come from different tables or passages of the source.

β2-adrenoreceptor, sequence (P07550 whole entry): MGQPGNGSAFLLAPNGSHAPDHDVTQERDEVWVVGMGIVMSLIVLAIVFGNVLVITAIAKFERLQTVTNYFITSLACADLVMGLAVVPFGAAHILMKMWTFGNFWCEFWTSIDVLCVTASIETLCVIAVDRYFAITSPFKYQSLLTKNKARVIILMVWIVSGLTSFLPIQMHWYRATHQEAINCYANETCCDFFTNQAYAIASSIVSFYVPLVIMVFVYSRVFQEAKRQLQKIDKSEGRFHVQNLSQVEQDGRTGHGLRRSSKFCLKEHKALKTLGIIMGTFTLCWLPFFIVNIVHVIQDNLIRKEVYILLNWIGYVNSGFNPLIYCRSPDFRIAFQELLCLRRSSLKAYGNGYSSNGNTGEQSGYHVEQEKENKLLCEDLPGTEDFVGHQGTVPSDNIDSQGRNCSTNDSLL
Protocol for β2-adrenoreceptor: Substance used for the assays: • a) extr. taraxaci spir. sicc.
In the assays, the extract of taraxacum and the membrane preparation were combined in different stoichiometric ratios, dissolved in 200 μl of binding buffer (150 mM of NaCl, 50 mM of tris, pH 8.2 in water).
The receptor-ligand binding was completed by 30-minute-long incubation of the mixture at 30-34° C. The solutions were then placed on a Microcon 10 centrifugal filter and centrifuged at 9981×g for 15 min or until dryness of the filter. […] After two washing steps with binding buffer, the complexes present on the filter were separated by treatment with 200 μl of TFA (1/49.5/49.5).
The eluates from the following four filtration steps were centrifuged under vacuum until dryness, and the substances obtained were dissolved by means of ultrasound in 10 μl of the mobile phase of the HPLC (cf. Example 1), shortly before LC analysis.

In the case of `CS(=O)(=O)N1CCN(C(=O)C(Cc2cccc(C(=N)N)c2)NS(=O)(=O)c2ccc3ccccc3c2)CC1` (stereo not shown) [Substance 6], the Ki at Thrombin [1] came to 0.0021 µmol/L. Moreover, in the assay on serine protease trypsin (Sample 261, without trypsin), the “1st Wash” value was determined as 0.71 µmol/L, the “2nd Wash” value came out at 0.05 µmol/L, the Filtrate stood at 7.44 µmol/L and the Liberation turned out to be 0.01 µmol/L. In addition, in the assay on serine protease trypsin (Sample 262, trypsin 50 μmol/l), the “1st Wash” value came to 0.23 µmol/L, the “2nd Wash” value was 0.15 µmol/L, the Filtrate is 0.67 µmol/L and the Liberation was found to be 6.09 µmol/L. The Ki at Trypsin stood at 0.067 µmol/L.

For the molecule `N=C(N)c1cccc(CC(NS(=O)(=O)c2ccc3ccccc3c2)C(=O)N2CCCCC2)c1` (stereo not shown) [Substance 7], on Thrombin [1], the Ki was found to be 0.065 µmol/L. For the same molecule, in the assay on serine protease trypsin (Sample 261, without trypsin), the “1st Wash” value was found to be 3.13 µmol/L, the “2nd Wash” value was 0.26 µmol/L, the Filtrate amounted to 31.57 µmol/L and the Liberation is 0.13 µmol/L. Further, in the assay with serine protease trypsin (Sample 262, trypsin 50 μmol/l), the “1st Wash” value was 3.68 µmol/L, the “2nd Wash” value turned out to be 1.29 µmol/L, the Filtrate is 22.22 µmol/L and the Liberation came out at 8.49 µmol/L.

For `Cl.Clc1cccc(Cl)c1NC1=NCCN1` [clonidin-HCL], on serine protease thrombin, the “Binding to target thrombin (difference between main experiment and blind sample)” value is listed as “not an inhibitor”.

Consider `CCOC(=O)C1CCN(C(=O)C(Cc2cccc(C(=N)N)c2)NS(=O)(=O)c2ccc3ccccc3c2)CC1` (stereo not shown) [Substance 10], for which the Ki at Thrombin [1] stood at 0.36 µmol/L. Besides, in the assay with serine protease trypsin (Sample 261, without trypsin), the “1st Wash” value is 0.02 µmol/L, the “2nd Wash” value came to 0.0013 µmol/L, the Filtrate came out at 0.05 µmol/L and the Liberation came out at 0.0011 µmol/L. Also, in the assay on serine protease trypsin (Sample 262, trypsin 50 μmol/l), the “1st Wash” value is 0.0058 µmol/L, the “2nd Wash” value is 0.0012 µmol/L, the Filtrate came to 0.02 µmol/L and the Liberation was 0.53 µmol/L. The Ki at Trypsin was 0.02 µmol/L.

For the molecule `COc1cc(C)c(S(=O)(=O)N[C@@H](CC(=O)O)C(=O)N[C@H](Cc2ccc(C(=N)N)cc2)C(=O)N2CCCCC2)c(C)c1C` [CRC 220], the Ki at Thrombin [2] is 2.5 nM.

In the case of `O=C(/C=C/c1ccc(O)c(O)c1)O[C@@H](C(=O)O)[C@@H](OC(=O)/C=C/c1ccc(O)c(O)c1)C(=O)O` [Substance L6, trans-chicorinic acid], the “1st Wash” value on β2-adrenoreceptor (setting [3]) stood at 15045 nmol/L; at β2-adrenoreceptor (setting [4]) it was 451.4 nmol/L; on β2-adrenoreceptor (setting [5]), 600.1 nmol/L; at β2-adrenoreceptor (setting [6]), 468.9 nmol/L; on β2-adrenoreceptor (setting [7]) it was 146.5 nmol/L; at β2-adrenoreceptor (setting [8]), 958.0 nmol/L. For the same molecule, the “1st Wash” value on β2-adrenoreceptor (setting [9]) came to 248.3 nmol/L; on β2-adrenoreceptor (setting [10]), 1377.0 nmol/L; at β2-adrenoreceptor (setting [11]), 626.7 nmol/L; at β2-adrenoreceptor (setting [12]) it was 620.0 nmol/L; at β2-adrenoreceptor (setting [13]), 832.5 nmol/L; on β2-adrenoreceptor (setting [14]) it was 478.1 nmol/L. Also, the “1st Wash” value at β2-adrenoreceptor (setting [15]) was found to be 182.7 nmol/L; at β2-adrenoreceptor (setting [16]), 1062.4 nmol/L; at β2-adrenoreceptor (setting [17]), 921.1 nmol/L. The “2nd Wash” value on β2-adrenoreceptor (setting [3]) came out at 750.8 nmol/L; at β2-adrenoreceptor (setting [4]) it was 100.4 nmol/L; on β2-adrenoreceptor (setting [5]), 202.1 nmol/L; at β2-adrenoreceptor (setting [6]) it was 140.3 nmol/L; at β2-adrenoreceptor (setting [7]), 124.3 nmol/L; on β2-adrenoreceptor (setting [8]) it was 351.4 nmol/L. For the same molecule, the “2nd Wash” value stood at 142.0 nmol/L on β2-adrenoreceptor (setting [9]); 627.8 nmol/L at β2-adrenoreceptor (setting [10]); 141.6 nmol/L at β2-adrenoreceptor (setting [11]); 181.5 nmol/L at β2-adrenoreceptor (setting [12]); 274.6 nmol/L on β2-adrenoreceptor (setting [13]); 341.9 nmol/L on β2-adrenoreceptor (setting [14]). Further, the “2nd Wash” value on β2-adrenoreceptor (setting [15]) is 277.1 nmol/L; at β2-adrenoreceptor (setting [16]) it was 476.6 nmol/L; on β2-adrenoreceptor (setting [17]), 433.9 nmol/L. Further, the Filtrate on β2-adrenoreceptor (setting [3]) came out at 5970.7 nmol/L; on β2-adrenoreceptor (setting [4]), 1482.0 nmol/L; at β2-adrenoreceptor (setting [5]), 1848.6 nmol/L; on β2-adrenoreceptor (setting [6]) it was 2935.2 nmol/L; at β2-adrenoreceptor (setting [7]), 1588.2 nmol/L; at β2-adrenoreceptor (setting [8]), 3446.6 nmol/L. The Filtrate on β2-adrenoreceptor (setting [9]) was 1180.6 nmol/L; on β2-adrenoreceptor (setting [10]) it was 3752.4 nmol/L; at β2-adrenoreceptor (setting [11]), 2291.6 nmol/L; on β2-adrenoreceptor (setting [12]) it was 5581.8 nmol/L; at β2-adrenoreceptor (setting [13]), 5159.0 nmol/L; at β2-adrenoreceptor (setting [14]), 7449.7 nmol/L. The figures for the Filtrate on β2-adrenoreceptor (setting [15]), on β2-adrenoreceptor (setting [16]) and at β2-adrenoreceptor (setting [17]) were 5562.6 nmol/L, 8589.0 nmol/L and 10838.5 nmol/L, respectively. In addition, the Liberation on β2-adrenoreceptor (setting [3]) was 195.0 nmol/L; on β2-adrenoreceptor (setting [4]) it was 707.0 nmol/L; at β2-adrenoreceptor (setting [5]), 2199.1 nmol/L; on β2-adrenoreceptor (setting [6]), 34.7 nmol/L; at β2-adrenoreceptor (setting [7]), 138.1 nmol/L; at β2-adrenoreceptor (setting [8]), 85.4 nmol/L. The Liberation on β2-adrenoreceptor (setting [9]) was determined as 257.0 nmol/L; on β2-adrenoreceptor (setting [10]), 151.3 nmol/L; at β2-adrenoreceptor (setting [11]), 439.6 nmol/L; at β2-adrenoreceptor (setting [12]) it was 504.8 nmol/L; on β2-adrenoreceptor (setting [13]) it was 616.8 nmol/L; on β2-adrenoreceptor (setting [14]), 674.0 nmol/L. In addition, the Liberation on β2-adrenoreceptor (setting [15]) was found to be 2096.1 nmol/L; on β2-adrenoreceptor (setting [16]), 1015.4 nmol/L; at β2-adrenoreceptor (setting [17]), 279.9 nmol/L.

These data come from patent US7232690B1, “Method and device for detecting and isolating pharmacological compounds being contained in substance mixtures” (LTS Lohmann Therapie-Systeme AG, priority 1999, dated 2007).
